Patent US4205163A, “Tylosin derivatives” (Sanraku-Ocean Co., Ltd., priority 1977, dated 1980)
Values after ≈ are worked out from the molar mass of the structure shown. Where two headings read alike, the source gives them in different places.

Legend:
[1] = test system: Staphylococcus aureus MS-9931; experiment: antimicrobial activity, broth dilution method; format: cell-based
Method in brief: (§1)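 Activity was measured by broth dilution against each strain. S. aureus MS-8710 is a clinical isolate resistant to tylosin, penicillin, tetracycline, erythromycin and leucomycin. The S. pyogenes strain is a clinical isolate resistant to tylosin, erythromycin, oleandomycin and leucomycin.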

[2] = test system: Staphylococcus aureus MS-9937; experiment: antimicrobial activity, broth dilution method; format: cell-based
Method in brief: as §1

[3] = test system: Streptococcus pyogenes MH-771; experiment: antimicrobial activity, broth dilution method; format: cell-based; settings: Streptococcus pyogenes
Method in brief: as §1

[4] = test system: Mycoplasma gallisepticum KP-13; experiment: antibacterial activity against Mycoplasma; format: cell-based; settings: Mycoplasmoides gallisepticum, KP13
Source text: (§2) Furthermore the new antibiotics according to the present invention also show antimicrobial activity on Mycoplasma. In particular, it is noteworthy that they have much higher antimicrobial activity than tylosin on Mycoplasma that is resistant to macrolide antibiotics. Tab.
(§3) **Medium (Eiken PPLO Medium)

[5] = test system: Mycoplasma gallisepticum A-72; experiment: antibacterial activity against Mycoplasma; format: cell-based; settings: Mycoplasmoides gallisepticum, A72; strain A-72, macrolide resistant; Eiken PPLO Medium
Source text: as §2
(§4) *Macrolide resistant strain
as §3

[6] = test system: Mycoplasma gallisepticum E-11; experiment: antibacterial activity against Mycoplasma; format: cell-based; settings: Mycoplasmoides gallisepticum, E11
Source text: as §2, §4, §3

[7] = test system: Mycoplasma gallisepticum E-5; experiment: antibacterial activity against Mycoplasma; format: cell-based; settings: Mycoplasmoides gallisepticum, E5
Source text: as §2, §4, §3

[8] = toxicity in chickens, mixed with feed for a month; format: in vivo; settings: mixed with feed at 0.3%
Source text: 3-Acetyl-4"-D-(α-hydroxyphenylacetyl)tylosin, 4"-phenylthioacetyltylosin and 4"-benzenesulfonylacetyltylosin, selected as the representative compounds according to the present invention, were mixed with feed at a ratio of 0.3%, respectively and given to chickens for a month.

[9] = in vivo; settings: mouse, po, 100 mg/kg
Description: The new antibiotics according to the present invention were each orally administered to mice at a dose of 100 mg/kg. Each blood level was then measured and compared with those of tylosin and 3-acetyltylosin.

[10] = test system: Bacillus cereus ATCC 9634; experiment: antimicrobial activity, broth dilution method; format: cell-based; settings: Bacillus cereus
Method in brief: as §1

[11] = test system: Sarcina lutea ATCC 9341; experiment: antimicrobial activity, broth dilution method; format: cell-based; settings: Micrococcus luteus, ATCC9341, Sarcina lutea ATCC 9341, read-out: minimum inhibitory concentration (MIC)
Method in brief: as §1

[12] = test system: Staphylococcus aureus FDA-209P; experiment: antimicrobial activity, broth dilution method; format: cell-based; settings: Staphylococcus aureus, FDA209P, read-out: minimum inhibitory concentration (MIC)
Method in brief: (§5)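 Broth dilution MICs were measured against pathogenic bacteria, including clinically isolated drug-resistant strains. Staphylococcus aureus MS-8710 is resistant to tylosin, penicillin, tetracycline, erythromycin and leucomycin, and Streptococcus pyogenes to tylosin, erythromycin, oleandomycin and leucomycin.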

[13] = test system: Staphylococcus aureus MS-8710; experiment: antimicrobial activity, broth dilution method; format: cell-based; settings: Staphylococcus aureus
Method in brief: as §1

[14] = test system: Staphylococcus aureus SMITH; experiment: antimicrobial activity, broth dilution method; format: cell-based; settings: Staphylococcus aureus, read-out: minimum inhibitory concentration (MIC)
Method in brief: as §5

[15] = MS9931, Staphylococcus aureus MS-9931, drug-resistant clinical isolate, read-out: minimum inhibitory concentration (MIC)
[16] = MS9937, Staphylococcus aureus MS-9937, drug-resistant clinical isolate, read-out: minimum inhibitory concentration (MIC)
[17] = MH771, Streptococcus pyogenes MH-771, drug-resistant clinical isolate, read-out: minimum inhibitory concentration (MIC)
[18] = strain KP-13, Eiken PPLO Medium, read-out: MIC
[19] = strain E-11, macrolide resistant, Eiken PPLO Medium, read-out: MIC
[20] = strain E-5, macrolide resistant, Eiken PPLO Medium, read-out: MIC
[21] = ATCC9634, Bacillus cereus ATCC 9634, broth dilution, read-out: minimum inhibitory concentration (MIC)
[22] = Staphylococcus aureus FDA-209P, broth dilution
[23] = MS8710, Staphylococcus aureus MS-8710, drug-resistant clinical isolate, read-out: minimum inhibitory concentration (MIC)
[24] = Staphylococcus aureus SMITH, broth dilution

SMILES	MIC [1, 15] [µg/mL]	MIC [2, 16] [µg/mL]	MIC [3, 17] [µg/mL]	MIC [4, 18] [µg/mL]	MIC [5] [µg/mL]	MIC [6, 19] [µg/mL]	MIC [7, 20] [µg/mL]	toxicity [8]	concentration at 1 h [9] [ng/mL]	concentration at 3 h [9] [ng/mL]	MIC [10, 21] [µg/mL]	MIC [11] [µg/mL]	MIC [12, 22] [µg/mL]	MIC [13, 23] [µg/mL]	MIC [14, 24] [µg/mL]	also measured
CCC1OC(=O)CC(OC(C)=O)C(C)C(OC2OC(C)C(OC3CC(C)(O)C(OC(=O)C(O)c4ccccc4)C(C)O3)C(N(C)C)C2O)C(CC=O)CC(C)C(=O)C=CC(C)=CC1COC1OC(C)C(O)C(OC)C1OC [Compound 17, 3-acetyl-4"-D-(α-hydroxyphenylacetyl)tylosin]	12.5 (≈ 11.4 µM)	12.5 (≈ 11.4 µM)	6.25 (≈ 5.72 µM)	0.157 (≈ 0.144 µM)	0.313 (≈ 0.287 µM)	0.625 (≈ 0.572 µM)	0.625 (≈ 0.572 µM)	No toxicity was observed	10000	2000						
CCC1OC(=O)CC(O)C(C)C(OC2OC(C)C(OC3CC(C)(O)C(OC(=O)CSc4ccccc4)C(C)O3)C(N(C)C)C2O)C(CC=O)CC(C)C(=O)C=CC(C)=CC1COC1OC(C)C(O)C(OC)C1OC (stereo not drawn) [Compound 34, 4"-phenylthioacetyltylosin]	12.5 (≈ 11.7 µM)	12.5 (≈ 11.7 µM)	6.25 (≈ 5.86 µM)	0.019 (≈ 0.0178 µM)	0.078 (≈ 0.0731 µM)	0.078 (≈ 0.0731 µM)	0.078 (≈ 0.0731 µM)	No toxicity was observed			0.39 (≈ 0.366 µM)	0.19 (≈ 0.178 µM)	0.39 (≈ 0.366 µM)	6.25 (≈ 5.86 µM)	0.39 (≈ 0.366 µM)	
CC[C@H]1OC(=O)C[C@@H](O)[C@H](C)[C@@H](O[C@@H]2O[C@H](C)[C@@H](O[C@H]3C[C@@](C)(O)[C@@H](O)[C@H](C)O3)[C@H](N(C)C)[C@H]2O)[C@@H](CC=O)C[C@@H](C)C(=O)/C=C/C(C)=C/[C@@H]1CO[C@@H]1O[C@H](C)[C@@H](O)[C@@H](OC)[C@H]1OC [tylosin]					2.5 (≈ 2.73 µM)							0.19 (≈ 0.207 µM)				MIC ([10]; ATCC9634, read-out: minimum inhibitory concentration (MIC)): 0.78 µg/mL (≈ 0.851 µM); MIC [12]: 0.39 µg/mL (≈ 0.426 µM); MIC ([13]; MS8710, read-out: minimum inhibitory concentration (MIC)): > 200 µg/mL; MIC ([1]; Staphylococcus aureus, MS9931, read-out: minimum inhibitory concentration (MIC)): 200 µg/mL (≈ 218 µM); MIC ([2]; Staphylococcus aureus, MS9937, read-out: minimum inhibitory concentration (MIC)): 100 µg/mL (≈ 109 µM); MIC [14]: 0.39 µg/mL (≈ 0.426 µM); MIC ([3]; MH771, read-out: minimum inhibitory concentration (MIC)): > 200 µg/mL; MIC [4]: 0.019 µg/mL (≈ 0.0207 µM); MIC [6]: 2.5 µg/mL (≈ 2.73 µM); MIC [7]: 2.5 µg/mL (≈ 2.73 µM); Cmax [9]: ≤ 1000 ng/mL
CCC1OC(=O)CC(O)C(C)C(OC2OC(C)C(OC3CC(C)(O)C(OC(=O)CS(=O)(=O)c4ccccc4)C(C)O3)C(N(C)C)C2O)C(CC=O)CC(C)C(=O)C=CC(C)=CC1COC1OC(C)C(O)C(OC)C1OC (stereo not drawn) [Compound 43, 4"-benzenesulfonylacetyltylosin]	6.25 (≈ 5.69 µM)	6.25 (≈ 5.69 µM)	3.13 (≈ 2.85 µM)	0.019 (≈ 0.0173 µM)	0.039 (≈ 0.0355 µM)	0.078 (≈ 0.071 µM)	0.078 (≈ 0.071 µM)	No toxicity was observed			0.78 (≈ 0.71 µM)	0.39 (≈ 0.355 µM)	0.78 (≈ 0.71 µM)	6.25 (≈ 5.69 µM)	0.78 (≈ 0.71 µM)	
CCC1OC(=O)CC(O)C(C)C(OC2OC(C)C(OC3CC(C)(O)C(OC(=O)CCc4ccccc4)C(C)O3)C(N(C)C)C2O)C(CC=O)CC(C)C(=O)C=CC(C)=CC1COC1OC(C)C(O)C(OC)C1OC (stereo not drawn) [Compound 24, 4"-β-phenylpropionyltylosin]	12.5 (≈ 11.9 µM)	25 (≈ 23.8 µM)	25 (≈ 23.8 µM)	0.078 (≈ 0.0744 µM)	0.157 (≈ 0.15 µM)	0.313 (≈ 0.299 µM)	0.313 (≈ 0.299 µM)		12000	2000	0.78 (≈ 0.744 µM)	0.19 (≈ 0.181 µM)	0.78 (≈ 0.744 µM)	12.5 (≈ 11.9 µM)	0.39 (≈ 0.372 µM)	
